Test results: US20070244079A1, “PREVENTIVE/REMEDY FOR ALLERGIC DISEASES” (Ajinomoto Co., Inc., priority 2004, published 2007)

Columns and labels:
[1] = tested on: ovalbumin-induced asthma model mice; experiment: Ovalbumin-induced asthma model mice: eosinophil count in BAL Fluid; assay type: in vivo, Balb/c mice
[2] = tested on: ovalbumin-induced pulmonary fibrosis model mice; experiment: Ovalbumin-induced pulmonary fibrosis model mice: airway resistance (Penh) after methacholine; assay type: in vivo, Balb/c mice; settings: valine 15 g/L, dexamethasone 10 mg %, inhalation 40 minutes per day, day 21 to day 42, no treatment 4.0
Description: Ovalbumin-induced pulmonary fibrosis model mice were induced by a conventional method using Balb/c mice, and the lung function reduction suppressive effect of coadministration of L-valine (free form) and dexamethasone by inhalation was investigated. 24 hours after antigen exposure on day 42, the pulmonary fibrosis model mice were allowed to inhale methacholine, which is a bronchial constriction inducer, and airway resistance (Penh) was measured using a Buxco whole body plethysmography. Valine (15 g/L) and dexamethasone (10 mg %) were aerosolized with a nebulizer and coadministered by inhalation (40 minutes per day) on consecutive days from day 21 to day 42.

[3] = tested on: ovalbumin-induced pulmonary fibrosis model mice; experiment: Ovalbumin-induced pulmonary fibrosis model mice: hydroxyproline content in lung tissue; assay type: in vivo, Balb/c mice; settings: valine 15 g/L, dexamethasone 10 mg %, inhalation 40 minutes per day, day 21 to day 42; no treatment 28.7%
Description: Ovalbumin-induced pulmonary fibrosis model mice were induced by a conventional method using Balb/c mice, and the pulmonary fibrosis suppressive effect of coadministration of L-valine (free form) and dexamethasone by inhalation was investigated. 24 hours after antigen exposure on day 42, the lungs were extirpated from the pulmonary fibrosis model mice, and the hydroxyproline content in lung tissue was measured as an index of the degree of fibrosis. Valine (15 g/L) and dexamethasone (10 mg %) were aerosolized with a nebulizer and coadministered by inhalation (40 minutes per day) on consecutive days from day 21 to day 42. The results are expressed as increments (%) of the hydroxyproline content in each test group compared to the hydroxyproline content in the lung tissues from normal mice.

[4] = tested on: ovalbumin-induced asthma model mice; experiment: Airway hypersensitivity test (methacholine, whole body plethysmography) in ovalbumin-induced asthma model mice; assay type: in vivo, Balb/c mice; settings: 3 mM aqueous solution, free water drinking day 0 to day 21; methacholine inhalation; asthma model mice 6.61
Description: After elapse of 24 hours following a third antigen exposure, the animals were allowed to inhale methacholine, which is an airway constricting substance, and an airway hypersensitivity test of the ovalbumin-induced asthma mice was performed using a whole body plethysmography. As an index of airway resistance, the Penh value was used. In the ovalbumin-induced asthma model mice, the Penh value was 6.61; in the group receiving a 3 mM aqueous solution of valine administered by the free water drinking method from day 0 to day 21, the Penh value decreased to 3.77.

[5] = tested on: ovalbumin-induced asthma model mice; experiment: Cytokine concentrations in BAL Fluid (ELISA) of ovalbumin-induced asthma model mice; assay type: in vivo, Balb/c mice; settings: 0.6 mM aqueous solution, free water drinking day 0 to day 21
Description: After a 0.6 mM aqueous solution of valine was prepared, it was administered by the free water drinking method from day 0 to day 21. The IFN-γ/IL4 ratio increased from 5.8 for the control group to 8.0 for the valine administration group.

[6] = tested on: ovalbumin-induced asthma model mice; experiment: Lung tissue pathology (H/E staining), immune cell infiltration in ovalbumin-induced asthma model mice; assay type: in vivo, Balb/c mice; settings: valine 3 mM or ornithine hydrochloride 15 mM, free water drinking day 0 to day 21
Description: After elapse of 24 hours following a third antigen exposure, the lungs were extirpated from the mice and fixed in 10% formalin buffer solution, paraffin sections were prepared, and H/E staining was performed. […] Note that FIG. 7(a) is a lung tissue image of a normal mouse without asthma induction.

[7] = tested on: Ovalbumin-immunized Balb/c mice; experiment: Cytokine productivity of isolated immune cells (lung macrophages co-cultured with splenocytes) from ovalbumin-immunized mice given valine; assay type: in vivo; settings: valine 3 mM free water drinking day 0 to day 11, co-cultured with splenocytes 48 hours, ELISA
Description: Ovalbumin-immunized Balb/c mice were given L-valine (free form), and changes in the cytokine productivity of isolated immune cells were examined, whereby the effect on the Th1/Th2 balance in a living organism's immune system was investigated. After a 3 mM aqueous solution of valine was prepared, it was administered by the free water drinking method from day 0 to day 11. […] On day 11, macrophages were isolated from the lungs and cultured in the presence of 1 mg/mL ovalbumin overnight, after which they were further co-cultured with splenocytes isolated from an ovalbumin-immunized mouse for 48 hours. After the cultivation, cytokines in the culture supernatant were measured by an ELISA method. […] With valine administration, an increase in the Th1 cytokine content and a reduction in the Th2 cytokine content were observed.

[8] = 0.6 to 15 mM aqueous solutions, free water drinking day 0 to day 21, 1st of 3 values (respectively), control 33
[9] = 0.6 to 15 mM aqueous solutions, free water drinking day 0 to day 21, 2nd of 3 values (respectively), control 33
[10] = 0.6 to 15 mM aqueous solutions, free water drinking day 0 to day 21, 3rd of 3 values (respectively), control 33

## N=C(N)NCCC[C@H](N)C(=O)O [arginine, L-arginine]
[1]; 3 to 45 mM aqueous solutions, free water drinking day 0 to day 21, 1st of 3 values (respectively), control 45
  eosinophil count in the BAL Fluid: 26000 µL⁻¹
[1]; 3 to 45 mM aqueous solutions, free water drinking day 0 to day 21, 2nd of 3 values (respectively), control 45
  eosinophil count in the BAL Fluid: 25000 µL⁻¹
[1]; 3 to 45 mM aqueous solutions, free water drinking day 0 to day 21, 3rd of 3 values (respectively), control 45
  eosinophil count in the BAL Fluid: 19000 µL⁻¹

## C[C@@H]1C[C@H]2[C@@H]3CCC4=CC(=O)C=C[C@]4(C)[C@@]3(F)[C@@H](O)C[C@]2(C)[C@@]1(O)C(=O)CO [dexamethasone, reference compound]
[2]
  Penh value (airway resistance): 4.1
[3]
  increment of hydroxyproline content in lung tissue compared to normal mice: 15.4%

## NCC(=O)O [glycine]
[1]; [8]
  eosinophil count in the BAL Fluid: 32000 µL⁻¹
[1]; [9]
  eosinophil count in the BAL Fluid: 27000 µL⁻¹
[1]; [10]
  eosinophil count in the BAL Fluid: 28000 µL⁻¹

## CC[C@H](C)[C@H](N)C(=O)O [isoleucine, L-isoleucine]
[1]; 0.45 mM aqueous solution, free water drinking day 0 to day 21, control 20
  eosinophil count in the BAL Fluid: 12000 µL⁻¹

## CC(C)C[C@H](N)C(=O)O [leucine, L-leucine]
[1]; 0.9 mM aqueous solution, free water drinking day 0 to day 21, control 20
  eosinophil count in the BAL Fluid: 7000 µL⁻¹

## N[C@@H](CO)C(=O)O [serine]
[1]; [8]
  eosinophil count in the BAL Fluid: 29000 µL⁻¹
[1]; [9]
  eosinophil count in the BAL Fluid: 24000 µL⁻¹
[1]; [10]
  eosinophil count in the BAL Fluid: 22000 µL⁻¹

## CC(C)[C@H](N)C(=O)O [valine, L-valine]
[1]; 15 mM, free water drinking started at first suction exposure (day 12)
  effect on eosinophil count in the BAL Fluid compared to the control group: no significant effect
[1]; 0.12 to 15 mM aqueous solutions, free water drinking day 0 to day 21, 1st of 4 values (respectively), control 36
  eosinophil count in the BAL Fluid: 26000 µL⁻¹
[1]; 0.12 to 15 mM aqueous solutions, free water drinking day 0 to day 21, 2nd of 4 values (respectively), control 36
  eosinophil count in the BAL Fluid: 23000 µL⁻¹
[1]; 0.12 to 15 mM aqueous solutions, free water drinking day 0 to day 21, 3rd of 4 values (respectively), control 36
  eosinophil count in the BAL Fluid: 17000 µL⁻¹
[1]; 0.12 to 15 mM aqueous solutions, free water drinking day 0 to day 21, 4th of 4 values (respectively), control 36
  eosinophil count in the BAL Fluid: 28000 µL⁻¹
[1]; 0.6, 3, or 15 g/L aqueous solution, oral by sonde 100 μL/time/animal twice a day, day 0 to day 21
  eosinophil count in the BAL Fluid: decreased with dependence on the dose
[1]; 0.6 or 15 g/L aqueous solution, inhalation (nebulizer) once daily 30 minutes, 5 days/week, day 11 to day 21
  eosinophil count in the BAL Fluid: decreased with dependence on the dose
[4]
  Penh value (index of airway resistance): 3.77
[5]; ELISA, control 69.1
  IL-4 in BAL Fluid: 120.7 pg/mL
[5]; ELISA, control 403.8
  IFN-γ in BAL Fluid: 970.4 pg/mL
[5]; control 5.8
  IFN-γ/IL-4 ratio in BAL Fluid: 8.0
[6]
  lung tissue symptoms (immune cell infiltration, hypertrophy of bronchial epithelial cells, mucosa-producing cells, bronchial stenosis): all of the above-described symptoms were potently suppressed, and no bronchial stenosis was observed
[7]
  IL-4 (pg/mL) Mean, culture supernatant: 9.2 pg/mL
[7]; control 147.0
  IFN-γ (pg/mL) Mean, culture supernatant: 341.1 pg/mL
[2]
  Penh value (airway resistance): 4.0
[3]
  increment of hydroxyproline content in lung tissue compared to normal mice: 31%
